“Also recorded” adds a separate entry of the source.
Tests used:
Assay type in all cases: cell-based, human
NFAT [1] = assay: PMA/Ion-induced NFAT activation potential in CD4+ and CD8+ T cells of stable transplant recipients receiving tacrolimus
Method: Protocol to measure the NF-κB and/or NFAT activation potential in immunophenotypically defined cell populations: Obtain peripheral blood sample in sodium heparin container. Keep PBL sample at ambient room temperature. Prepare sufficient number of 15 mL polypropylene tubes (10-9152N, Niagara Scientific, Lancaster, N.Y.) to accommodate the number of variables to be tested. One tube is needed for the unstimulated control, one for the unstimulated cell line control (HL60 […] or Jurkat) and two (1 for HL60 and 1 for patient sample) for each of the stimulation conditions to be tested (e.g. PMA/Ion, TNFα, CD3/CD28, etc.). Aliquot 500 μl whole blood per tube for the patient samples. For cell line controls, add enough volume from culture flask to yield 2×10^6 cells/tube. […]
Cell line controls are washed in 1× Phosphate Buffered saline solution (1×PBS) (Mediatech, Herndon, Va.), and then fixed by adding 1 ml of a 4% solution of methanol free Formaldehyde (Polysciences, Warrington, Pa.) at room temperature for 10 minutes. Cells are washed twice in 1×PBS, spin, and resuspend cell pellets in residual volume (they are now ready to be probed for NF-κB and/or NFAT and are left at room temperature until whole blood samples are ready). […] Cells are now ready to be probed for NF-κB and/or NFAT. […] Samples are then washed in 1×PBS and are ready to be run on the imaging cell sorting machine. […]

NFAT [2] = assay: PMA/Ionomycin-induced NFAT translocation in healthy donor cells, imaging flow cytometry
NFkB = assay: PMA/Ionomycin-induced NFkB activation in healthy donor CD4+ cells in plasma, imaging flow cytometry; settings: increasing concentrations of Tacrolimus (FIG. 6)
NFAT1 = assay: PMA/Ionomycin-induced NFAT1 translocation in Jurkat cells incubated in patient plasma obtained after in vivo tacrolimus administration; settings: patient plasma obtained between 1 h and 12 h after tacrolimus administration (FIGS. 8 and 9)

C=CC[C@@H]1/C=C(\C)C[C@H](C)C[C@H](OC)[C@H]2O[C@@](O)(C(=O)C(=O)N3CCCC[C@H]3C(=O)O[C@H](/C(C)=C/[C@@H]3CC[C@@H](O)[C@H](OC)C3)[C@H](C)[C@@H](O)CC1=O)[C@H](C)C[C@@H]2OC [tacrolimus] was tested. Which “correlation between trough tacrolimus levels and NFAT activation potential” value (NFAT [1]; CD4+ and CD8+ cells of transplant recipients chronically exposed to tacrolimus) did it give?
Its value is “Neither for CD4+ nor CD8+ cells was a correlation found; also recorded: no statistically significant dose-response relationship was observed”.

What about the “difference in NFAT activation potential before (0 h) and after (4 h) a dose” value (NFAT [1]; CD4+ or CD8+ cells of stable transplant recipients) of the same compound?
Its value is “did not determine a significant difference”.

What about the NFAT translocation potential (NFAT [2]; healthy donor CD4+ cells in plasma, increasing concentrations of Tacrolimus (FIG. 6)) of the same compound?
The NFAT translocation potential was “dose-dependent decrease”.

And the “inhibition of PMA/Ion-induced NFAT translocation” value (NFAT [2]; healthy donor peripheral blood, CD4+ cells in culture medium, increasing concentration of tacrolimus (FIG. 5))?
The value was “dose-dependent inhibition”.

And the “correlation between extracellular concentrations and PMA/Ionomycin-induced NFAT1 activation potential” value (NFAT [2]; in vitro, spiked into tissue culture media, plasma or whole blood, naive cells (Jurkat or healthy donor CD4+ or CD8+ T cells))?
The value was “a strong correlation is observed”.

What about the “inhibitory effect on NFkB activation” value (NFkB) of the same compound?
Its value is “less pronounced for NFkB but can be seen at higher drug concentrations”.

What about the “inhibitory effect on NFAT in cells naive to previous tacrolimus exposure” value (NFAT1) of the same compound?
The value was “closely mirrors that of the expected plasma levels; also recorded: a good dose-response was observed”.
